Experimental data as given in the NIST ThermoML archive (doi:10.1021/acs.jced.5b00613).
± gives the expanded uncertainty stated by the source.

Details: Liquid, Vibrating tube method

CCCCCC [hexane] showed a mass density (278.15 K, 100 kPa) of 673.3 ± 0.7 kg/m3, a mass density (278.15 K, 1000 kPa) of 673.9 ± 0.7 kg/m3 and a mass density (278.15 K, 5000 kPa) of 677.6 ± 0.8 kg/m3. For the same molecule, the mass density (278.15 K, 10000 kPa) was 681.8 ± 0.8 kg/m3, the mass density (278.15 K, 20000 kPa) was 689.6 ± 0.8 kg/m3 and the mass density (278.15 K, 30000 kPa) was 696.8 ± 0.9 kg/m3. For the same molecule, the mass density (278.15 K, 40000 kPa) was 703.2 ± 0.9 kg/m3, the mass density (278.15 K, 50000 kPa) was 709.2 ± 1 kg/m3 and the mass density (278.15 K, 60000 kPa) was 715 ± 1.1 kg/m3. It also gave a mass density (298.15 K, 100 kPa) of 656.1 ± 0.7 kg/m3, a mass density (298.15 K, 1000 kPa) of 655.9 ± 0.7 kg/m3 and a mass density (298.15 K, 5000 kPa) of 660.1 ± 0.8 kg/m3. For the same molecule, the mass density (298.15 K, 10000 kPa) was 665.1 ± 0.8 kg/m3, the mass density (298.15 K, 20000 kPa) was 673.9 ± 0.8 kg/m3 and the mass density (298.15 K, 30000 kPa) was 681.9 ± 0.9 kg/m3. The mass density (298.15 K, 40000 kPa) was 689 ± 1 kg/m3, the mass density (298.15 K, 50000 kPa) was 695.5 ± 1 kg/m3 and the mass density (298.15 K, 60000 kPa) was 701.7 ± 1.1 kg/m3. It also gave a mass density (323.15 K, 100 kPa) of 631.7 ± 0.8 kg/m3, a mass density (323.15 K, 1000 kPa) of 633.1 ± 0.7 kg/m3 and a mass density (323.15 K, 5000 kPa) of 638.2 ± 0.8 kg/m3. It also gave a mass density (323.15 K, 10000 kPa) of 644.2 ± 0.8 kg/m3, a mass density (323.15 K, 20000 kPa) of 654.7 ± 0.8 kg/m3 and a mass density (323.15 K, 30000 kPa) of 663.9 ± 0.9 kg/m3. It also gave a mass density (323.15 K, 40000 kPa) of 671.9 ± 1 kg/m3, a mass density (323.15 K, 50000 kPa) of 679.3 ± 1 kg/m3 and a mass density (323.15 K, 60000 kPa) of 686.1 ± 1.1 kg/m3. It also gave a mass density (348.15 K, 1000 kPa) of 608.5 ± 0.8 kg/m3, a mass density (348.15 K, 5000 kPa) of 614.9 ± 0.8 kg/m3 and a mass density (348.15 K, 10000 kPa) of 622.1 ± 0.8 kg/m3. The mass density (348.15 K, 20000 kPa) was 634.6 ± 0.9 kg/m3, the mass density (348.15 K, 30000 kPa) was 645.2 ± 0.9 kg/m3 and the mass density (348.15 K, 40000 kPa) was 654.4 ± 1 kg/m3. For the same molecule, the mass density (348.15 K, 50000 kPa) was 662.6 ± 1.1 kg/m3, the mass density (348.15 K, 60000 kPa) was 670.2 ± 1.1 kg/m3 and the mass density (373.15 K, 1000 kPa) was 582.6 ± 3 kg/m3. For the same molecule, the mass density (373.15 K, 5000 kPa) was 591 ± 3 kg/m3, the mass density (373.15 K, 10000 kPa) was 600 ± 3 kg/m3 and the mass density (373.15 K, 20000 kPa) was 614.8 ± 3 kg/m3. For the same molecule, the mass density (373.15 K, 30000 kPa) was 627 ± 3.1 kg/m3, the mass density (373.15 K, 40000 kPa) was 637.4 ± 3.1 kg/m3 and the mass density (373.15 K, 50000 kPa) was 646.6 ± 3.1 kg/m3. The mass density (373.15 K, 60000 kPa) was 654.9 ± 3.1 kg/m3, the mass density (423.15 K, 1000 kPa) was 521.2 ± 3.1 kg/m3 and the mass density (423.15 K, 5000 kPa) was 536.9 ± 3.1 kg/m3. It also gave a mass density (423.15 K, 10000 kPa) of 551.5 ± 3 kg/m3, a mass density (423.15 K, 20000 kPa) of 573.2 ± 3.1 kg/m3 and a mass density (423.15 K, 30000 kPa) of 589.7 ± 3.1 kg/m3. For the same molecule, the mass density (423.15 K, 40000 kPa) was 603.2 ± 3.1 kg/m3, the mass density (423.15 K, 50000 kPa) was 614.6 ± 3.1 kg/m3 and the mass density (423.15 K, 60000 kPa) was 624.8 ± 3.2 kg/m3. It also gave a mass density (463.15 K, 5000 kPa) of 484.2 ± 3.1 kg/m3, a mass density (463.15 K, 10000 kPa) of 508.5 ± 3.1 kg/m3 and a mass density (463.15 K, 20000 kPa) of 538.9 ± 3.1 kg/m3. It also gave a mass density (463.15 K, 30000 kPa) of 559.8 ± 3.1 kg/m3, a mass density (463.15 K, 40000 kPa) of 575.9 ± 3.1 kg/m3 and a mass density (463.15 K, 50000 kPa) of 589.3 ± 3.2 kg/m3. For the same molecule, the mass density (463.15 K, 60000 kPa) was 600.7 ± 3.2 kg/m3.

With CCCCCCCCCCCC [dodecane] the mass density (278.15 K, 100 kPa) was 759.2 ± 0.7 kg/m3, the mass density (278.15 K, 1000 kPa) was 760.5 ± 0.8 kg/m3 and the mass density (278.15 K, 5000 kPa) was 763.1 ± 0.7 kg/m3. The mass density (278.15 K, 10000 kPa) was 766.2 ± 0.7 kg/m3, the mass density (278.15 K, 20000 kPa) was 771.9 ± 0.8 kg/m3 and the mass density (278.15 K, 30000 kPa) was 777.3 ± 0.8 kg/m3. The mass density (278.15 K, 40000 kPa) was 782.3 ± 0.8 kg/m3, the mass density (278.15 K, 50000 kPa) was 787.1 ± 0.9 kg/m3 and the mass density (278.15 K, 60000 kPa) was 791.7 ± 0.9 kg/m3. It also gave a mass density (298.15 K, 100 kPa) of 745.6 ± 0.7 kg/m3, a mass density (298.15 K, 1000 kPa) of 746.2 ± 0.7 kg/m3 and a mass density (298.15 K, 5000 kPa) of 749 ± 0.7 kg/m3. It also gave a mass density (298.15 K, 10000 kPa) of 752.4 ± 0.7 kg/m3, a mass density (298.15 K, 20000 kPa) of 758.7 ± 0.8 kg/m3 and a mass density (298.15 K, 30000 kPa) of 764.7 ± 0.8 kg/m3. It also gave a mass density (298.15 K, 40000 kPa) of 770.1 ± 0.8 kg/m3, a mass density (298.15 K, 50000 kPa) of 775.3 ± 0.9 kg/m3 and a mass density (298.15 K, 60000 kPa) of 780.2 ± 0.9 kg/m3. The mass density (323.15 K, 100 kPa) was 727.2 ± 0.7 kg/m3, the mass density (323.15 K, 1000 kPa) was 728.2 ± 0.7 kg/m3 and the mass density (323.15 K, 5000 kPa) was 731.4 ± 0.7 kg/m3. It also gave a mass density (323.15 K, 10000 kPa) of 735.3 ± 0.7 kg/m3, a mass density (323.15 K, 20000 kPa) of 742.6 ± 0.8 kg/m3 and a mass density (323.15 K, 30000 kPa) of 749.2 ± 0.8 kg/m3. The mass density (323.15 K, 40000 kPa) was 755.2 ± 0.8 kg/m3, the mass density (323.15 K, 50000 kPa) was 760.9 ± 0.9 kg/m3 and the mass density (323.15 K, 60000 kPa) was 766.3 ± 0.9 kg/m3. The mass density (348.15 K, 100 kPa) was 708.7 ± 0.7 kg/m3, the mass density (348.15 K, 1000 kPa) was 709.6 ± 0.7 kg/m3 and the mass density (348.15 K, 5000 kPa) was 713.4 ± 0.7 kg/m3. The mass density (348.15 K, 10000 kPa) was 717.8 ± 0.8 kg/m3, the mass density (348.15 K, 20000 kPa) was 726.1 ± 0.8 kg/m3 and the mass density (348.15 K, 30000 kPa) was 733.5 ± 0.8 kg/m3. The mass density (348.15 K, 40000 kPa) was 740.2 ± 0.9 kg/m3, the mass density (348.15 K, 50000 kPa) was 746.4 ± 0.9 kg/m3 and the mass density (348.15 K, 60000 kPa) was 752.3 ± 1 kg/m3. The mass density (373.15 K, 1000 kPa) was 690.8 ± 3 kg/m3, the mass density (373.15 K, 5000 kPa) was 695.2 ± 3 kg/m3 and the mass density (373.15 K, 10000 kPa) was 700.4 ± 3 kg/m3. The mass density (373.15 K, 20000 kPa) was 709.8 ± 3 kg/m3, the mass density (373.15 K, 30000 kPa) was 718.1 ± 3 kg/m3 and the mass density (373.15 K, 40000 kPa) was 725.6 ± 3 kg/m3. It also gave a mass density (373.15 K, 50000 kPa) of 732.5 ± 3.1 kg/m3, a mass density (373.15 K, 60000 kPa) of 738.9 ± 3.1 kg/m3 and a mass density (423.15 K, 1000 kPa) of 652.6 ± 3 kg/m3. For the same molecule, the mass density (423.15 K, 5000 kPa) was 658.7 ± 3 kg/m3, the mass density (423.15 K, 10000 kPa) was 665.6 ± 3 kg/m3 and the mass density (423.15 K, 20000 kPa) was 677.6 ± 3 kg/m3. The mass density (423.15 K, 30000 kPa) was 688 ± 3 kg/m3, the mass density (423.15 K, 40000 kPa) was 697 ± 3.1 kg/m3 and the mass density (423.15 K, 50000 kPa) was 705.3 ± 3.1 kg/m3. It also gave a mass density (423.15 K, 60000 kPa) of 712.8 ± 3.1 kg/m3, a mass density (463.15 K, 5000 kPa) of 627.9 ± 3 kg/m3 and a mass density (463.15 K, 10000 kPa) of 636.9 ± 3 kg/m3. The mass density (463.15 K, 20000 kPa) was 651.8 ± 3 kg/m3, the mass density (463.15 K, 30000 kPa) was 664.2 ± 3.1 kg/m3 and the mass density (463.15 K, 40000 kPa) was 674.8 ± 3.1 kg/m3. It also gave a mass density (463.15 K, 50000 kPa) of 684.1 ± 3.1 kg/m3 and a mass density (463.15 K, 60000 kPa) of 692.6 ± 3.1 kg/m3.
